Source: US20060229358A1, “Pharmaceutical composition containing flavonoids” (Taipei Medical University, priority 2005, published 2006)

Test system: PDE3
Assay: Inhibition of cyclic nucleotide PDE activity (Assay I), PDE3
Type: biochemical, guinea pig
Details: mean ± S.E.M. (n); read-out: IC50 on phosphodiesterase isozyme 3
Description: Under a protocol approved by the Animal Care and Use Committee of Taipei Medical University, five male guinea pigs (Hartley), weighing 500-600 g, were sacrificed. The lungs (15 g) or hearts (4 g) taken therefrom were chopped into small pieces and homogenized with a glass/teflon homogenizer (Glas-Col, Terre Haute, Ind., USA) in 10 volumes of cold medium (pH 6.5) containing 20 mM Bis-Tris, 2 mM benzamidine, 2 mM EDTA, 50 mM sodium chloride, 0.1 mM phenylmethanesulfonyl fluoride (PMSF), and 1 mM dithiothreitol. At 4° C., the homogenate was centrifuged at 170 g for 15 min, and the supernatant thereof was then re-centrifuged at 40,000 g for 30 min. […] The column was washed with two bed volumes of homogenate buffer to remove unbound material, where the resin beads therein will bind with proteins, such as PDE proteins. Proteins bound to the Q-sepharose beads were eluted with various concentrations (0.23, 0.34, 0.44, 0.69, and 1.00 M) of NaCl dissolved in homogenate buffer (for each concentration, 40-50 mL elution buffer were applied) at a flow rate of 30 ml/h. Fractions (3 ml each) were collected, and ethylene glycol (EG) was added thereto until a final concentration of 30% (v/v). And then the samples were frozen at −70° C.
The activities of PDE1-5 in the homogenate were measured with a two-step procedure according to the method of Thompson and Appleman, using cAMP with [^3H]-cAMP or cGMP with [^3 H]-cGMP as substrates. The PDE enzyme prepared (25 μl) with 10 μl inhibitor or the solvents therefor was incubated for 30 min at 37° C. in a total assay buffer, where the final volume of the assay is amounted to 100 μl. In accordance with the features of the PDE isozymes, the assay buffer contains 50 mM Tris/HCl (pH 7.4), 3 mM MgCl2, 1 mM dithiothreitol, and 0.05% BSA, and optionally contains 1 uM cAMP with 0.2 μCi [^3H]-cAMP as a substrate alone or in the presence of 0.1 unit calmodulin with 10 μM CaCl2, or 5 μM cGMP, and 1 μM cGMP with 0.2 μCi [^3H]-cGMP as another substrate alone or in the presence of 0.1 unit calmodulin with 10 μM CaCl2.
The PDE enzyme and the inhibitors (or their solvent) therefor were mixed and incubated on ice for 30 min previously, and then mixed with the assay buffer. The assay was initiated by transferring the mixture to a water bath at 37° C. Following the other 30 min incubation, the reaction was stopped by transferring the reaction vessel to a bath of boiling water for 3 min. After cooling on ice, 20 μl of the 1 mg/ml of Crotalus atrox venom was added to the reaction mixture, and the mixture was incubated at 37° C. for 10 min. The uncatalyzed substrates, such as cAMP, [^3H]-cAMP, cGMP, or [^3H]-cGMP were removed by the addition of 500 μl of a 1-in-1 Tris-HCl (40 mM) buffer suspension of Dowex resin (1×8-200) with incubation on ice for 30 min, since the bindings of the cyclic nucleotides and the resin. Each tube was then centrifuged for 2 min at 6000 rpm, and 100 μl of the supernatant was removed and counted by a β-counter for calculating the enzyme (PDEs) activity.
The IC50 values of flavonoids and various reference drugs were calculated using non-linear regression analysis by the software SigmaPlot 7.0 (Sigma Chemical, St. Louis Mo., USA). All values are shown as the mean±S.E.M. Differences among values, which are equal or greater to three groups, were statistically calculated by one-way analysis of variance (ANOVA), and then determined by the least significant difference (LSD). The difference between two values, however, was determined by use of Student's unpaired t-test. Differences were considered statistically significant if the P-value was less than 0.05.

Compound	IC50 [µM]
O=c1c(O)c(-c2cc(O)c(O)c(O)c2)oc2cc(O)cc(O)c12 [Myricetin]	12.4 ± 3.3
O=C1CC(c2ccc(O)c(O)c2)Oc2cc(O)cc(O)c21 (stereo not drawn) [Eriodictyol]	52.5 ± 17.7
COc1cc(O)c2c(=O)c(-c3ccc(O)cc3)coc2c1 [Prunetin]	> 100
O=c1c(-c2ccc(O)cc2)coc2cc(O)cc(O)c12 [Genistein]	12.9 ± 5.2
O=c1cc(-c2ccc(O)c(O)c2)oc2cc(O)cc(O)c12 [Luteolin]	10.1 ± 1.8
COc1ccc(C2CC(=O)c3c(O)cc(O)cc3O2)cc1O (stereo not drawn) [Hesperetin]	> 100
O=c1c(O)c(-c2ccc(O)c(O)c2)oc2cc(O)cc(O)c12 [Quercetin]	5.6 ± 1
COc1ccc(-c2coc3cc(O)cc(O)c3c2=O)cc1 [Biochanin A]	> 100
O=c1cc(-c2ccc(O)cc2)oc2cc(O)cc(O)c12 [Apigenin]	10.5 ± 3.5
O=c1c(-c2ccc(O)cc2)coc2cc(O)ccc12 [Daidzein]	28.6 ± 8.5
O=c1cc(-c2ccccc2)oc2cc(O)cc(O)c12 [Chrysin]	> 100
O=c1cc(-c2ccc(O)c(O)c2)oc2cc(O[C@@H]3O[C@H](CO)[C@@H](O)[C@H](O)[C@H]3O)cc(O)c12 [Luteolin-7-glucoside]	> 100
